From US11467158B2, “BRCA1 mutations as predictive markers for topoisomerase inhibitions” (BOSTON MEDICAL CENTER CORPORATION, priority 2012, dated 2022)
Entries after “also recorded” stand apart in the source; their conditions may differ. Non-standard residues stand in square brackets, D forms with d. No end group written: not given here. pS = N[C@@H](COP(=O)(O)O)C(=O)O

Legend:
topo I [1] = assay: topo I ubiquitination in cells (anti-topoI immunoprecipitation, anti-ubiquitin immunoblot); type: cell-based
Description: (§1) Phosphorylated GST-topo I was incubated with purified E1, UbcH5c (E2), and BRCA1/BARD1 (E3) (lane2). Phosphorylated topo I was also incubated with E1 and UbcH5c (E2) only as control (lane 1). Reactions were carried out in ubiquitination buffer at 37° C. for 30 min. The reaction products were analyzed by immunoblot analysis with anti-ubiquitin. […] Immunoprecipitates were analyzed by immunoblot analysis with anti-ubiquitin. […] Control and treated cells were harvested and lysed. Cell lysates were analyzed by immunoblot analysis with anti-topo I (upper panel) and anti-β-actin (lower panel).
(§2) Cells were harvested after designated time and lysed. The cell lysates were analyzed by immunoblot analysis with anti-topo I (upper panel) and anti-β-actin for equal protein loading (lower panel). An infrared secondary antibody was used and a LICOR system was used to visualize the florescence. […] Immunoprecipitates were analyzed by immunoblot analysis with anti-Pan ubiquitin. […] The cell number was counted after 12 hours using a Celigo system. The cells were treated with 10 and 25 nM SN-38 for 72 hours. The cells were counted again using the Celigo system and growth inhibition was determined using a formula described in the materials and methods section.
(§3) Control and treated cells were harvested and lysed. Cell lysates were analyzed by immunoblot analysis with anti-topo I (upper panel) and anti-β-actin (lower panel). […] Immunoprecipitates were analyzed by immunoblot analysis with anti-ubiquitin.
(§4) To further validate the findings in cells the inventors used BRCA1 E3 ligase deficient HCC1937 cells. The cells are sensitive to DNA-damaging agents and have impaired BRCA1 E3 ligase function. The inventors have used HCC1937 cells and stably expressed BRCA1 (HCC1937-BRCA1) to restore E3 ligase function. Both, HCC1937 and HCC1937-BRCA1 cells were treated with CPT for 60 minutes and drug free for 30 minutes in the presence of MG132. Control and CPT treated cells were lysed and subjected to immunoprecipitation with anti-topoI. The immunoprecipitates were analyzed by immunoblot analysis with anti-ubiquitin. […] Topo I is degraded in the response to CPT by ubiquitin proteosomal pathways, and the rate of degradation at least in part determines anti neoplastic activity of the drug. To determine the correlation between topo I degradation and CPT efficacy in HCC1937 and HCC1937-BRCA cells, were treated with […] and topo I degradation (FIG. 2C) and cell growth inhibition assays were performed (FIG. 2D).
(§5) To understand the topo I ubiquitination and CPT response, based on the inventors previous early screen, the inventors selected four triple negative breast cancer cell lines with differential rate of UPP mediated topo I degradation. […] To determine the level of CPT induced ubiquitination, control and treated cells were lysed and cell lysates were subjected to immunoprecipitation with anti-topoI. The immunoprecipitates were analyzed by immunoblot analysis with anti-ubiquitin. […] To understand the possible correlation between ubiquitination dependent topo I degradation and CPT response, cells were treated with different concentration of SN-38 and analyzed for percent growth inhibition. […] The highest percent of growth inhibition was detected in BT20 (FIG. 3C). Taken together, rate of topo I degradation by UPP determines the drug sensitivity in triple negative breast cancer cells.

topo I [2] = assay: topo I degradation in cells (immunoblot with anti-topo I); type: cell-based
Description: as §1, §2, §3, §4, §5

HCC1937 cells = assay: percent cell growth inhibition after 72 hours (Celigo); type: cell-based
Description: as §1, §3, §4

HCC1937-BRCA1 cells = assay: as above; type: cell-based
Description: as §1, §3, §4

BT20 cells = assay: TNBC cell growth inhibition, 72 hours (Celigo); type: cell-based
Description: as §2, §5

BT549 cells = assay: TNBC cell growth inhibition, 72 hours (Celigo); type: cell-based
Description: as §2, §5

SUM52 cells = assay: TNBC cell growth inhibition, 72 hours (Celigo); type: cell-based; conditions: 10 and 25 nM
Description: as §2, §5

MDAMB231 cells = assay: TNBC cell growth inhibition, 72 hours (Celigo); type: cell-based
Description: as §2, with “The cells were treated with 10 and 25 nM SN-38 for 72 hours.” left out
as §5, with “Taken together, rate of topo I degradation by UPP determines the drug sensitivity in triple negative breast cancer cells.” left out

BRCA1-BRCT domain = biological target: T1, BRCA1-BRCT domain (Homo sapiens, UniProt P38398); assay: fluorescence polarization of Topo I phosphopeptide with GST-BRCT; type: binding; conditions: peptide labeled with Alexa Fluor 532, final dilution 1:1000 or 1:500, varying GST-BRCT concentrations
T1 construct: made in house; host or cells: E. coli Rosetta (DE3) pLysS (Novagen)
Description: Phosphopeptide labeled with Alexa Fluor 532 was incubated at a final dilution of either 1:1000 or 1:500 with varying concentrations of GST-BRCT or buffer alone. Polarization of the light emitted by the labeled peptide was detected on a Tecan Infinite M1000 pro and is plotted as a function of protein concentration.
An exemplary assay to identify a mutation in the BRCT domain which decreases the binding affinity of the BRCT domain for the phospho-ser10-topo I polypeptide was performed as follows (see FIG. 8): Topo I phosphopeptide NDpSQIEADFRLNDC (SEQ ID NO: 4) was conjugated to Alexa Fluor 532 (Invitrogen) via maleimide reaction with the C-terminal cysteine, as per manufacturer's protocol. Labeled peptide was separated from the reaction mixture by RP-HPLC using C-18 media and eluted with 30% acetonitrile. The partially purified peptide was lyophilized and resuspended in TBS with 1 mM DTT. GST-BRCT was expressed in Rosetta (DE3) pLysS (Novagen) and purified by standard methods. The purified protein was eluted from the GS beads and dialyzed against TBS containing 1 mM DTT and 5% glycerol prior to storage at −80°. […] 20 μl from each dilution was then transferred to each of 4 wells in a 384-well black plate, and FP was read on a Tecan Infinite M1000 pro and plotted as mP as a function of protein concentration.

leukemia L-1210 = conditions: experimentally transplanted leukemia L-1210 in mice; cited from earlier work
Walker 256 tumor = conditions: experimentally transplanted Walker 256 tumor in rats; cited from earlier work
[3] = system: biosynthesis of nucleic acids; conditions: cited from earlier work
HIV-1 = conditions: acute and chronic infections, in vitro; cited from earlier work

T1 sequence (P38398 1650-1863): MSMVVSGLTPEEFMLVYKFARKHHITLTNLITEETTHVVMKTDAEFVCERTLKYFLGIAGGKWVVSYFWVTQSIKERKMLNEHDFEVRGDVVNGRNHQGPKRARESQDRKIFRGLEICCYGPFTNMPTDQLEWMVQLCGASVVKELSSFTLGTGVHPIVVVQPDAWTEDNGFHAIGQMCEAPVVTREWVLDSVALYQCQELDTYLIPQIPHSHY

## CCc1c2c(nc3ccc(O)cc13)-c1cc3c(c(=O)n1C2)COC(=O)[C@]3(O)CC [SN-38]
Topo I [1]; HCC1937-BRCA1 cells (wild type BRCA1 restored), treated 60 minutes, drug free 30 minutes, MG132
  topo I ubiquitination: pronounced topo I ubiquitination
Topo I [2]; HCC1937-BRCA1 cells
  topo I degradation: degrade topo I
Topo I [2]; HCC1937 cells
  topo I degradation: do not degrade topo I
HCC1937 cells
  cell growth inhibition (sensitivity to the drug): sensitive
HCC1937-BRCA1 cells
  cell growth inhibition (sensitivity to the drug): sensitive
BT20 cells; BT20 cells
  percent growth inhibition (compared among four TNBC cell lines): highest
BT20 cells; BT20 cells (printed BT2020)
  sensitivity to the drug (growth inhibition): very sensitive
BT549 cells
  sensitivity to the drug (growth inhibition): very sensitive
SUM52 cells
  percent growth inhibition (compared among four TNBC cell lines): least
MDAMB231 cells; 50 nM
  cell growth under drug: cells were growing
MDAMB231 cells; 72 hours
  sensitivity to the drug (growth inhibition): remained resistant

## NDpSQIEADFRLNDC (SEQ ID NO: 4) (ND[pS]QIEADFRLNDC; listed as Homo sapiens) [Topo I phosphopeptide, topo I phosphopeptide with phosphorylated S10]
BRCA1-BRCT domain
  binding to GST-BRCT (fluorescence polarization): direct interaction
BRCA1-BRCT domain; listed as topo I phosphopeptide
  binding to GST-BRCT (fluorescence polarization): binds directly

## CC[C@@]1(O)C(=O)OCc2c1cc1n(c2=O)Cc2cc3ccccc3nc2-1 [CPT, camptothecin]
Topo I [1]; BT20 cells
  topo I ubiquitination: no ubiquitination
Topo I [1]; BT549 cells
  topo I ubiquitination: no ubiquitination
Topo I [1]; HCC1937 cells (BRCA1 E3 ligase deficient), treated 60 minutes, drug free 30 minutes, MG132
  topo I ubiquitination: No ubiquitination; also recorded: fail to ubiquitinate topo I; also recorded: fails to ubiquitinate and degrade topo I
Topo I [1]; MDAMB231 cells
  topo I ubiquitination: ubiquitinated
Topo I [1]; SUM52 cells
  topo I ubiquitination: ubiquitinated
Topo I [2]; BT20 cells, in 2 hours
  topo I degradation: not appreciably degraded
Topo I [2]; BT549 cells, in 2 hours
  topo I degradation: not appreciably degraded
Topo I [2]; HCC1937-BRCA1 cells
  topo I degradation: degrades topo I
Topo I [2]; HCC1937 cells
  topo I degradation: fails to ubiquitinate and degrade topo I
Topo I [2]; MDAMB231 cells
  time in which topo I was degraded: ≤ 2 h
Topo I [2]; SUM52 cells
  time in which topo I was degraded: ≤ 2 h
HCC1937 cells
  cell growth inhibition (sensitivity to the drug): highly sensitive
HCC1937-BRCA1 cells
  cell growth inhibition (sensitivity to the drug): resistant
Leukemia L-1210
  anti-tumor activity: potent anti-tumor activity
Walker 256 tumor
  anti-tumor activity: potent anti-tumor activity
[3]
  inhibitory activity toward the biosynthesis of nucleic acids: strong inhibitory activity

## CC[C@@]1(O)C(=O)OCc2c1cc1n(c2=O)Cc2cc3c(CN(C)C)c(O)ccc3nc2-1 [Topotecan]
HIV-1
  inhibition of HIV-1 infection: inhibit both acute and chronic HIV-1 infections
